Source: paper PMC11047187 (Synthetic and Systems Biotechnology, 2024)

Legend:
[1] = biological target: T1, EcFADS (FAD synthase, RibF; RFK activity) (Escherichia coli, UniProt P0AG40); test: RFK assay, FMN by HPLC fluorescence, Michaelis-Menten fit; assay type: biochemical; conditions: riboflavin kinase activity; 0.01-0.8 mM ATP, saturated RF; 15 mM MgCl2, 10 mM Na2SO3, potassium phosphate pH 7.5, 37 °C; read-out: KATP m
T1 construct: full-length bifunctional RibF in pETDuet-1 (BamHI/NotI), His-tagged, Ni-NTA purified, expressed in E. coli BL21(DE3); natural BL21 variant H115L (not engineered); about 35 kDa; mainly monomer; tag removal not mentioned
Description: (§1) RFK assay, FMN by HPLC fluorescence, Michaelis-Menten fit on EcFADS (FAD synthase, RibF; RFK activity)

[2] = biological target: T2, EcFADS (FAD synthase, RibF; RFK activity) (Escherichia coli, UniProt P0AG40, H187L/N282D, form not given); test: as above; assay type: biochemical; conditions: riboflavin kinase activity; 0.01-0.8 mM ATP, saturated RF; 15 mM MgCl2, 10 mM Na2SO3, potassium phosphate pH 7.5, 37 °C; read-out: KATP m
T2 construct: full-length bifunctional RibF in pETDuet-1 (BamHI/NotI), His-tagged, Ni-NTA purified, expressed in E. coli BL21(DE3); natural BL21 variant H115L (not engineered); about 35 kDa; mainly monomer; tag removal not mentioned
Description: as §1

T2 sequence (P0AG40 whole entry H187L/N282D, form open): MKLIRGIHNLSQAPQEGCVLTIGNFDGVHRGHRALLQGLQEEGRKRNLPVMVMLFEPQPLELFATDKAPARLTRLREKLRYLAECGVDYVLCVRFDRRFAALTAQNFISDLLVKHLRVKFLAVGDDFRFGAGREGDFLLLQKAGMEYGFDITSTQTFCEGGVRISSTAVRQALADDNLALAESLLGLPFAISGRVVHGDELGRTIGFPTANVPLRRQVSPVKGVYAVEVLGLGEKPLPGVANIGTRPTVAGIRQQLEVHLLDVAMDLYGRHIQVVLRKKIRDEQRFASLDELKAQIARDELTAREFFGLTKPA

Nc1ncnc2c1ncn2[C@@H]1O[C@H](COP(=O)(O)OP(=O)(O)OP(=O)(O)O)[C@@H](O)[C@H]1O [ATP] was tested, and the Km [1] was 10.2 ± 2.55 µM and the Km [2] was 91.1 ± 36.7 µM.
